This is an account of results in US20260035367A1 (Celgene Corporation, priority 2021, published 2026).

Structures can show the parent of a compound that is named as a salt. Where two headings read alike, the source gives them in different places. Where only a bound is given, the exact number is not on record here.

In assay [1] the target is T1, Recombinant human PKC-theta (His-tagged 362-706) (Homo sapiens, UniProt Q04759).
T1 construct: Recombinant human PKC-theta (His-tagged 362-706); His
The assay can be described thus: PKC-theta inhibition assay (HTRF KinEASE kit). The format is biochemical. The following applies: STK substrate 525 nM. The method, then:
PKC-theta and PKC-delta biochemical activities were measured using the PKC-theta HTRF KinEASEkit kit, according to manufacturer's instructions (Cisbio, catalogue number 61ST1PEJ). Briefly, the kinase buffer component of the kit was supplemented with 10 mM MgCl2, 1 mM DTT and 0.1% Tween 20. […] The streptavidin_XL665 and STK antibody-cryptate detection reagents were mixed according to the manufacturer's instructions. Test compounds were diluted in DMSO in a series of 10 semi-log step doses; 10 nL of each compound dose were dispensed in 384 well plates. […] The reaction was started by addition of the substrate and ATP and incubated at 25° C. for 30 minutes or 20 minutes for the PKC-theta and PKC-delta assays, respectively. The detection reagents were added, and the plate was incubated in the dark for 2 hours. […] The ratio of acceptor and donor emission signals was calculated for each well. Percent inhibition values were calculated from the HTRF ratios at different doses and fitted to a 4-parameter logistic curve to determine IC50 values (see Table 2).
(In general: TR-FRET usually uses a lanthanide donor and a delayed reading to cut background.)

In assay [2] the target is T2, Recombinant human PKC-delta (His-tagged 345-676) (Homo sapiens, UniProt Q05655).
T2 construct: PKC-delta (His-tagged 345-676); His
The assay can be described thus: PKC-delta inhibition assay (HTRF KinEASE kit). The following applies: ratio, PKC-theta vs PKC-delta HTRF; for PKC-theta/PKC-delta selectivity (binned): binned A to G. The format is biochemical.

For assay [3], the system named is IL-2 secretion by human effector memory T cells (TEM). The assay can be described thus: Effector memory T cells IL-2 release assay (CD3/CD28 stimulation, HTRF IL-2 detection). Conditions: 24 h; for IC50: Homo sapiens, T-cell. Format: cell-based. On the procedure: Test compound-mediated inhibition of NFκB signalling in T cells was assessed by quantification of the IL-2 secretion by human effector memory T cells (TEM) upon treatment and stimulation. Human TEM cells were isolated from buffy coats of healthy donors obtained from the French blood bank.
Finally, 10 doses of test compound, originally prepared in DMSO by serial semi-log step dilution, were also added to cells in triplicate wells. Final DMSO concentration in wells was 0.1% in a total volume of 100 μL complete medium. Plates were incubated for 24 h at 37° C. in 5% CO2 atmosphere. After incubation, cell suspensions were centrifuged at 400×g and culture supernatants were recovered and stored at −80° C. […] IL-2 levels were determined in cell supernatants using an HTRF human IL-2 detection kit (Cisbio, cat #62HIL02PEH).

The mark [4] stands for this setting: ATP 6.5 μM, binned A to H, read-out: PKC-theta HTRF pIC50 (binned) (converted).
Where [5] appears, read: ATP 6.5 μM, read-out: PKC-theta HTRF pIC50 (converted).
[6] abbreviates: binned A to G, read-out: PKC-theta IL2 pIC50 (binned) (converted).
Setting [7] is: read-out: PKC-theta IL2 pIC50 (converted).

T2 sequence (Q05655 345-676): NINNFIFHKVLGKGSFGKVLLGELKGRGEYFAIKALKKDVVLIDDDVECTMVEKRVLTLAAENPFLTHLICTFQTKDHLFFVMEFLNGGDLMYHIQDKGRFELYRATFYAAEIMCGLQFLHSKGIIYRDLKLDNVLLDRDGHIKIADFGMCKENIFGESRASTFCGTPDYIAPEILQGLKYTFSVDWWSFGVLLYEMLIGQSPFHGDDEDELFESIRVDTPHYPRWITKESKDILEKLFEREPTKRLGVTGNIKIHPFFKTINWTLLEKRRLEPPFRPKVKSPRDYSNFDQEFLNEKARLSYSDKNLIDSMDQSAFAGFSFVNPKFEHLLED
T1 sequence (Q04759 362-706): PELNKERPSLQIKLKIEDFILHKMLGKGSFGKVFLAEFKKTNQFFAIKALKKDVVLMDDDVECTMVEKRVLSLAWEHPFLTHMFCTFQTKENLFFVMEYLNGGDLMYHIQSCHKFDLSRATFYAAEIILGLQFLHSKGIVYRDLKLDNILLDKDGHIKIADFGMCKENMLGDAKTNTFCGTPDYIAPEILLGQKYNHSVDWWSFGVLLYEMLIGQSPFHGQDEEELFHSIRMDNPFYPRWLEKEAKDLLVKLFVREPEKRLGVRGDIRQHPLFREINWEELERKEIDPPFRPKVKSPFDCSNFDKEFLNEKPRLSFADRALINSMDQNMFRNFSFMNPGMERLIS

Take `C[C@@]1(O)C(=O)Nc2nccc(-c3cc(C(F)(F)F)cc(N4CC5CC(C4)N5)n3)c21` (single isomer, unassigned) [Example 149]: the IC50 in assay [1] (setting [4]) was 0.01 to 0.0316 µM; in assay [1] (setting [5]), 0.0251 µM; in assay [3] (setting [6]), 0.316 to 1 µM; in assay [3] (setting [7]), 0.398 µM. Further, the PKC-theta/PKC-delta selectivity in assay [2] is 15. Besides, in assay [2], the “PKC-theta/PKC-delta selectivity (binned)” value is “D (a ratio of between 10 and 20)”.

For the compound `C[C@@H]1CN(c2cc(C(F)(F)F)cc(-c3ccnc4c3C(C)(C)C(=O)N4)n2)CCCN1` [Example 186], the IC50 in assay [1] (setting [4]) is 0.00316 to 0.01 µM; in assay [1] (setting [5]), 0.00631 µM; in assay [3] (setting [6]) it was 0.0316 to 0.1 µM; in assay [3] (setting [7]) it was 0.0501 µM. Further, in assay [2], the PKC-theta/PKC-delta selectivity turned out to be 22. Also, the “PKC-theta/PKC-delta selectivity (binned)” value in assay [2] was “C (a ratio of between 20 and 30)”.

On to `C[C@H]1NCCN(c2cc(C(F)(F)F)cc(-c3ccnc4c3C(C)(C)C(=O)N4)n2)[C@H]1C` [Example 168], for which, in assay [1] (setting [4]), the IC50 was 0.000316 to 0.001 µM. In addition, the IC50 in assay [1] (setting [5]) was 0.000501 µM. Besides, in assay [2], the PKC-theta/PKC-delta selectivity is 14; the “PKC-theta/PKC-delta selectivity (binned)” value is “D (a ratio of between 10 and 20)”. Further, in assay [3], the “PKC-theta IL2 pIC50” value worked out at 8.1. The “PKC-theta IL2 pIC50 (binned)” value in assay [3] (binned A to G) is “B (a measured pIC50 of between 8.0 and 8.5)”.

Take `C[C@]1(O)C(=O)Nc2nccc(-c3cc(F)cc(N4CCNCC4)c3)c21` (single isomer, unassigned) [Example 62]: the IC50 is 0.00316 to 0.01 µM in assay [1] (setting [4]), 0.00631 µM in assay [1] (setting [5]), 0.1 to 0.316 µM in assay [3] (setting [6]) and 0.126 µM in assay [3] (setting [7]). Moreover, the PKC-theta/PKC-delta selectivity in assay [2] is on record as 5. Also, in assay [2], the “PKC-theta/PKC-delta selectivity (binned)” value is “E (a ratio of between 5 and 10)”.

Regarding `CC1(C)C(=O)Nc2nccc(-c3cccc(N(CC4COC4)C4CCNCC4)c3)c21` [Example 41], the IC50 in assay [1] (setting [4]) was 0.0316 to 0.1 µM; in assay [1] (setting [5]), 0.0794 µM; in assay [3] (setting [6]), greater than 1 µM; in assay [3] (setting [7]) it was 2 µM. Besides, the PKC-theta/PKC-delta selectivity in assay [2] is 3. For the same compound, the “PKC-theta/PKC-delta selectivity (binned)” value in assay [2] was “F (a ratio of between 1 and 5)”.

As for `CO[C@]1(C)C(=O)Nc2nccc(-c3cc(C(C)(F)F)cc(N4CCNC[C@H]4C)n3)c21` (single isomer, unassigned) [Example 193], the IC50 in assay [1] (setting [4]) is 0.00316 to 0.01 µM; in assay [1] (setting [5]), 0.01 µM; in assay [3] (setting [6]) it was 0.0316 to 0.1 µM; in assay [3] (setting [7]) it was 0.0794 µM. In addition, the PKC-theta/PKC-delta selectivity in assay [2] is reported as 16. For the same compound, in assay [2], the “PKC-theta/PKC-delta selectivity (binned)” value was “D (a ratio of between 10 and 20)”.

As for `CC1(C)C(=O)Nc2nccc(-c3cccc(C4(CN)COC4)c3)c21` [Example 44], the IC50 in assay [1] (setting [4]) is 0.1 to 0.316 µM; in assay [1] (setting [5]), 0.2 µM; in assay [3] (setting [6]), greater than 1 µM; in assay [3] (setting [7]), 10 µM. In assay [2], the PKC-theta/PKC-delta selectivity was determined as 4. Further, the “PKC-theta/PKC-delta selectivity (binned)” value in assay [2] was “F (a ratio of between 1 and 5)”.

With `CCC1C(=O)Nc2nccc(-c3cccc(N4CCNCC4)c3)c21` (stereo not shown) [Example 21], the IC50 in assay [1] (setting [4]) is 0.316 to 1 µM; in assay [1] (setting [5]) it was 0.316 µM; in assay [3] (setting [6]) it was 0.316 to 1 µM; in assay [3] (setting [7]) it was 1 µM. In addition, the PKC-theta/PKC-delta selectivity in assay [2] was found to be 1. In addition, the “PKC-theta/PKC-delta selectivity (binned)” value in assay [2] is “F (a ratio of between 1 and 5)”.

In the case of `CC1(C)C(=O)Nc2nccc(-c3cc(C(F)(F)F)cc(N4CCCNCC4)n3)c21` [Example 175], the IC50 was 0.00316 to 0.01 µM in assay [1] (setting [4]), 0.00501 µM in assay [1] (setting [5]), 0.0316 to 0.1 µM in assay [3] (setting [6]) and 0.0631 µM in assay [3] (setting [7]). Moreover, in assay [2], the PKC-theta/PKC-delta selectivity is given as 21. Also, in assay [2], the “PKC-theta/PKC-delta selectivity (binned)” value was “C (a ratio of between 20 and 30)”.

For `C[C@H]1CN(c2cc(Cl)cc(-c3ccnc4c3C(C)(O)C(=O)N4)n2)CCN1` (stereo partly shown) [Example 208], the IC50 in assay [1] (setting [4]) was 0.001 to 0.00316 µM; in assay [1] (setting [5]), 0.002 µM; in assay [3] (setting [6]), 0.01 to 0.0316 µM; in assay [3] (setting [7]), 0.02 µM. The PKC-theta/PKC-delta selectivity in assay [2] was 12. Moreover, in assay [2], the “PKC-theta/PKC-delta selectivity (binned)” value was “D (a ratio of between 10 and 20)”.

For the compound `CC1(C)C(=O)Nc2nccc(-c3cc(F)cc(CN4CCNCC4)c3)c21` [Example 32, 4-[3-fluoro-5-(piperazin-1-ylmethyl)phenyl]-3,3-dimethyl-1H-pyrrolo[2,3-b]pyridin-2-one; dihydrochloride], the IC50 in assay [1] (PKC-theta HTRF pIC50 (binned), ATP 6.5 μM, binned A to H) was 0.1 to 0.316 µM; in assay [1] (PKC-theta HTRF pIC50, ATP 6.5 μM), 0.2 µM; in assay [3] (setting [6]), greater than 1 µM; in assay [3] (setting [7]), 3.98 µM. In assay [2], the PKC-theta/PKC-delta selectivity stood at 3. Further, in assay [2], the “PKC-theta/PKC-delta selectivity (binned)” value is “F (a ratio of between 1 and 5)”.

With `CC[C@@]1(C)C(=O)Nc2nccc(-c3cc(C(C)(F)F)cc(N4CCCNCC4)n3)c21` (single isomer, unassigned) [Example 206], the IC50 is 0.0316 to 0.1 µM in assay [1] (setting [4]), 0.0316 µM in assay [1] (setting [5]), 0.316 to 1 µM in assay [3] (setting [6]) and 0.631 µM in assay [3] (setting [7]). Besides, the PKC-theta/PKC-delta selectivity in assay [2] came to 23. In assay [2], the “PKC-theta/PKC-delta selectivity (binned)” value is “C (a ratio of between 20 and 30)”.

On to `COc1cc(-c2ccnc3[nH]c(=O)[nH]c23)cc(N2CCNCC2)c1` [Example 9], for which the IC50 in assay [1] (setting [4]) is greater than 1 µM; in assay [1] (setting [5]), 2 µM; in assay [3] (setting [6]) it was greater than 1 µM; in assay [3] (setting [7]), 1.26 µM. For the same compound, the PKC-theta/PKC-delta selectivity in assay [2] came out at 1. Besides, in assay [2], the “PKC-theta/PKC-delta selectivity (binned)” value is on record as “G (a ratio of 0 to 1)”.

Take `C[C@@H]1CN(c2cc(C(F)(F)F)cc(-c3ccnc4c3[C@](C)(O)C(=O)N4)n2)[C@@H](C)CN1` (single isomer, unassigned) [Example 118]: the IC50 in assay [1] (setting [4]) was 0.01 to 0.0316 µM; in assay [1] (setting [5]) it was 0.0251 µM; in assay [3] (setting [6]), 0.1 to 0.316 µM; in assay [3] (setting [7]), 0.251 µM. For the same compound, the PKC-theta/PKC-delta selectivity in assay [2] came out at 12. For the same compound, in assay [2], the “PKC-theta/PKC-delta selectivity (binned)” value was “D (a ratio of between 10 and 20)”.

In the case of `CC1(C)C(=O)Nc2nccc(-c3cc(Cl)cc(N4CCNCC4C(F)F)n3)c21` (stereo not shown) [Example 159], the IC50 in assay [1] (setting [4]) is 0.001 to 0.00316 µM; in assay [1] (setting [5]), 0.002 µM; in assay [3] (setting [6]), 0.1 to 0.316 µM; in assay [3] (setting [7]), 0.1 µM. Besides, the PKC-theta/PKC-delta selectivity in assay [2] is 9. Further, the “PKC-theta/PKC-delta selectivity (binned)” value in assay [2] is “E (a ratio of between 5 and 10)”.

`CC1(O)C(=O)Nc2nccc(-c3cc(C(F)(F)F)cc(N4CCNCC4)n3)c21` (stereo not shown) [Example 80]: the IC50 was 0.00316 to 0.01 µM in assay [1] (setting [4]), 0.00631 µM in assay [1] (setting [5]), 0.0316 to 0.1 µM in assay [3] (setting [6]) and 0.0794 µM in assay [3] (setting [7]). The PKC-theta/PKC-delta selectivity in assay [2] is 12. For the same compound, in assay [2], the “PKC-theta/PKC-delta selectivity (binned)” value is “D (a ratio of between 10 and 20)”.

Take `C[C@H]1CN(c2cc(Cl)cc(-c3ccnc4c3C(C)(O)C(=O)N4)n2)CCN1` (stereo partly shown) [Example 74]: in assay [2], the PKC-theta/PKC-delta selectivity was found to be 12; the “PKC-theta/PKC-delta selectivity (binned)” value was “D (a ratio of between 10 and 20)”.

Regarding `CC[C@@]1(C)C(=O)Nc2nccc(-c3cc(Cl)cc(N4CCN[C@@H](C)C4)n3)c21` (single isomer, unassigned) [Example 170], the IC50 in assay [1] (setting [4]) was 0.00316 to 0.01 µM; in assay [1] (setting [5]), 0.00631 µM; in assay [3] (setting [6]) it was 0.1 to 0.316 µM; in assay [3] (setting [7]), 0.1 µM.

Take `O=c1[nH]c2nccc(-c3ccnc(N4CCNCC4)c3)c2[nH]1` [Example 13]: the IC50 was 0.316 to 1 µM in assay [1] (setting [4]), 0.398 µM in assay [1] (setting [5]), greater than 1 µM in assay [3] (setting [6]) and 10 µM in assay [3] (setting [7]).
